According to patent US20080090734A1, “DRUG SCREENING AND TARGET IDENTIFICATION USING SPR IMAGING OF TARGET PROTEIN ARRAYS” (The Trustees of California State University, priority 2006, published 2008):

How the values were obtained:
Assay in all cases: Antibiotic susceptibility profile
Format in all cases: cell-based, Acinetobacter baumannii
Set-up in all cases: key: Resistance; Intermediate; Susceptible
[1] = tested on: A. baumannii clinical isolate LAC 01
Source text: (§1) We obtained over thirty clinical isolates of A. baumannii from nosocomial infections in New York City and Los Angeles. […] Only antibiotics with breakpoints for A. baumannii were used. […] Isolates LA 01 to 20 were acquired from Los Angels County while NY-A to NY-H were obtained from New York City.
(§2) Antibiotic susceptibility profiles of clinical isolates of A. baumannii and reference strains. R, I, and S denote Resistance, Intermediate and Susceptible, respectively. Genetic Profiling of Clinical Isolates of A. baumannii

[2] = tested on: A. baumannii clinical isolate LAC 02
Source text: as §1, §2

[3] = tested on: A. baumannii clinical isolate LAC 03
Source text: as §1, §2

[4] = tested on: A. baumannii clinical isolate LAC 04
Source text: as §1, §2

[5] = tested on: A. baumannii clinical isolate LAC 05
Source text: as §1, §2

[6] = tested on: A. baumannii clinical isolate LAC 06
Source text: as §1, §2

[7] = tested on: A. baumannii clinical isolate LAC 07
Source text: as §1, §2

[8] = tested on: A. baumannii clinical isolate LAC 08
Source text: as §1, §2

[9] = tested on: A. baumannii clinical isolate LAC 09
Source text: as §1, §2

[10] = tested on: A. baumannii clinical isolate LAC 10
Source text: as §1, §2

[11] = tested on: A. baumannii clinical isolate LAC 11
Source text: as §1, §2

[12] = tested on: A. baumannii clinical isolate LAC 12
Source text: as §1, §2

[13] = tested on: A. baumannii clinical isolate LAC 13
Source text: as §1, §2

[14] = tested on: A. baumannii clinical isolate LAC 14
Source text: as §1, §2

[15] = tested on: A. baumannii clinical isolate LAC 15
Source text: as §1, §2

[16] = tested on: A. baumannii clinical isolate LAC 16
Source text: as §1, §2

[17] = tested on: A. baumannii clinical isolate LAC 17
Source text: as §1, §2

[18] = tested on: A. baumannii clinical isolate LAC 18
Source text: as §1, §2

[19] = tested on: A. baumannii clinical isolate LAC 19
Source text: as §1, §2

[20] = tested on: A. baumannii clinical isolate LAC 20
Source text: as §1, §2

[21] = tested on: A. baumannii clinical isolate NY A
Source text: as §1, §2

[22] = tested on: A. baumannii clinical isolate NY B
Source text: as §1, §2

[23] = tested on: A. baumannii clinical isolate NY C
Source text: as §1, §2

[24] = tested on: A. baumannii clinical isolate NY D
Source text: as §1, §2

[25] = tested on: A. baumannii clinical isolate NY E
Source text: as §1, §2

[26] = tested on: A. baumannii clinical isolate NY F
Source text: as §1, §2

[27] = tested on: A. baumannii clinical isolate NY G
Source text: as §1, §2

[28] = tested on: A. baumannii clinical isolate NY H
Source text: as §1, §2

[29] = tested on: A. baumannii reference strain 15839; conditions: strain 15839 (ATCC)
Source text: as §1, §2

[30] = tested on: A. baumannii reference strain 17978; conditions: strain 17978 (ATCC)
Source text: as §1, §2

[31] = tested on: A. baumannii reference strain 19606; conditions: strain 19606 (ATCC)
Source text: as §1, §2

[32] = tested on: A. baumannii reference strain AYE
Source text: as §1, §2

[33] = tested on: A. baumannii reference strain SDF
Source text: as §1, §2

NC[C@H]1O[C@H](O[C@H]2[C@H](O)[C@@H](O[C@H]3O[C@H](CO)[C@@H](O)[C@H](N)[C@H]3O)[C@H](N)C[C@@H]2N)[C@H](N)C[C@@H]1O [TOB, Tobramycin]
Antibiotic susceptibility [1]: R | Antibiotic susceptibility [2]: R | Antibiotic susceptibility [3]: R | Antibiotic susceptibility [4]: R | Antibiotic susceptibility [5]: R | Antibiotic susceptibility [6]: S | Antibiotic susceptibility [7]: R | Antibiotic susceptibility [8]: R | Antibiotic susceptibility [9]: R | Antibiotic susceptibility [10]: R | Antibiotic susceptibility [11]: S | Antibiotic susceptibility [12]: S | Antibiotic susceptibility [13]: S | Antibiotic susceptibility [14]: S | Antibiotic susceptibility [15]: S | Antibiotic susceptibility [16]: R | Antibiotic susceptibility [17]: R | Antibiotic susceptibility [18]: R | Antibiotic susceptibility [19]: R | Antibiotic susceptibility [20]: R | Antibiotic susceptibility [21]: R | Antibiotic susceptibility [22]: R | Antibiotic susceptibility [23]: R | Antibiotic susceptibility [24]: R | Antibiotic susceptibility [25]: R | Antibiotic susceptibility [26]: R | Antibiotic susceptibility [27]: I | Antibiotic susceptibility [28]: R | Antibiotic susceptibility [29]: R | Antibiotic susceptibility [30]: S | Antibiotic susceptibility [31]: S | Antibiotic susceptibility [32]: R | Antibiotic susceptibility [33]: S

CN(C)c1ccc(O)c2c1C[C@H]1C[C@H]3[C@H](N(C)C)C(O)=C(C(N)=O)C(=O)[C@@]3(O)C(O)=C1C2=O [MIN, Minocycline]
Antibiotic susceptibility [1]: S | Antibiotic susceptibility [2]: S | Antibiotic susceptibility [3]: S | Antibiotic susceptibility [4]: S | Antibiotic susceptibility [5]: S | Antibiotic susceptibility [6]: S | Antibiotic susceptibility [7]: S | Antibiotic susceptibility [8]: S | Antibiotic susceptibility [9]: S | Antibiotic susceptibility [10]: S | Antibiotic susceptibility [11]: R | Antibiotic susceptibility [12]: R | Antibiotic susceptibility [13]: R | Antibiotic susceptibility [14]: R | Antibiotic susceptibility [15]: S | Antibiotic susceptibility [16]: S | Antibiotic susceptibility [17]: S | Antibiotic susceptibility [18]: S | Antibiotic susceptibility [19]: S | Antibiotic susceptibility [20]: S | Antibiotic susceptibility [21]: S | Antibiotic susceptibility [22]: R | Antibiotic susceptibility [23]: S | Antibiotic susceptibility [24]: S | Antibiotic susceptibility [25]: I | Antibiotic susceptibility [27]: S | Antibiotic susceptibility [28]: S | Antibiotic susceptibility [29]: S | Antibiotic susceptibility [30]: S | Antibiotic susceptibility [31]: S | Antibiotic susceptibility [32]: S | Antibiotic susceptibility [33]: S

C[C@H]1COc2c(N3CCN(C)CC3)c(F)cc3c(=O)c(C(=O)O)cn1c23 [LVX, Levofloxacin]
Antibiotic susceptibility [1]: I | Antibiotic susceptibility [2]: I | Antibiotic susceptibility [3]: R | Antibiotic susceptibility [4]: S | Antibiotic susceptibility [5]: R | Antibiotic susceptibility [6]: S | Antibiotic susceptibility [7]: R | Antibiotic susceptibility [8]: R | Antibiotic susceptibility [9]: R | Antibiotic susceptibility [10]: R | Antibiotic susceptibility [11]: R | Antibiotic susceptibility [12]: R | Antibiotic susceptibility [13]: R | Antibiotic susceptibility [14]: R | Antibiotic susceptibility [15]: R | Antibiotic susceptibility [16]: R | Antibiotic susceptibility [17]: R | Antibiotic susceptibility [18]: R | Antibiotic susceptibility [19]: I | Antibiotic susceptibility [20]: R | Antibiotic susceptibility [21]: I | Antibiotic susceptibility [22]: R | Antibiotic susceptibility [23]: R | Antibiotic susceptibility [24]: R | Antibiotic susceptibility [25]: R | Antibiotic susceptibility [27]: R | Antibiotic susceptibility [28]: I | Antibiotic susceptibility [29]: R | Antibiotic susceptibility [30]: S | Antibiotic susceptibility [31]: S | Antibiotic susceptibility [32]: I | Antibiotic susceptibility [33]: S
